The numbers were not newly measured in patent US20070043121A1 (priority 2003, published 2007), which cites them from elsewhere.

In general, IC50 refers to the concentration needed to halve the response being measured.

Data set [1] relates to sodium channel (3H-batrachotoxin).
The conditions of data set [2]: water.

Consider `CC(C)c1cccc(C(C)C)c1O` [Propofal, 2,6-diisopropylphenol], for which the IC50 in data set [1] was 26 µM. Besides, the aqueous solubility entry in data set [2] was “very water insoluble”.
